PMC9146942 (International Journal of Molecular Sciences, 2022)
“Also recorded” adds a separate entry of the source. Like-named read-outs stand apart in the source and are kept apart here.

Tests used:
[1] = cited from earlier work
[2] = Cell viability (MTT) assay, 45 min exposure in classic buffer; conditions: dromedary camel, transduced Dubca cells overexpressing human Panx1
[3] = test system: transduced Dubca cells overexpressing human Panx1; assay: Cell viability (MTT) assay, 24 h exposure, for CC10 determination; conditions: sigmoidal curve fit
[4] = test system: transduced Dubca cells overexpressing human Panx1; conditions: dromedary camel
human Panx1 channels = biological target: T1, human Panx1 channels (Homo sapiens, UniProt Q96RD7); assay: Panx1 channel activity assay (extracellular ATP release after osmotic shock); type: cell-based; conditions: for Effect on extracellular ATP release / Panx1 channel activity (in words): 45 min exposure, six concentrations BC/10 to BCx10; for Concentration with significant inhibition of Panx1 channel activity (extracellular ATP release): 45 min exposure (15 min preincubation + 30 min osmotic buffer), combination given as final lopinavir concentration
T1 construct: expressed in transfected cells; host or cells: Dubca cells, transduced, stably overexpressing human Panx1

Panx1 protein expression = Panx1 protein expression by immunoblot analysis; type: cell-based, human; conditions: 24 h exposure, BC, BC/2, BC/10; total Panx1 and glycosylated isoforms
Panx1 mRNA expression = Panx1 mRNA expression by RT-qPCR analysis; type: cell-based, human; conditions: 24 h exposure, BC, BC/2, BC/10
[5] = maximum plasma concentration extracted from literature and recalculated to µM, reference per cell

T1 sequence (Q96RD7 whole entry): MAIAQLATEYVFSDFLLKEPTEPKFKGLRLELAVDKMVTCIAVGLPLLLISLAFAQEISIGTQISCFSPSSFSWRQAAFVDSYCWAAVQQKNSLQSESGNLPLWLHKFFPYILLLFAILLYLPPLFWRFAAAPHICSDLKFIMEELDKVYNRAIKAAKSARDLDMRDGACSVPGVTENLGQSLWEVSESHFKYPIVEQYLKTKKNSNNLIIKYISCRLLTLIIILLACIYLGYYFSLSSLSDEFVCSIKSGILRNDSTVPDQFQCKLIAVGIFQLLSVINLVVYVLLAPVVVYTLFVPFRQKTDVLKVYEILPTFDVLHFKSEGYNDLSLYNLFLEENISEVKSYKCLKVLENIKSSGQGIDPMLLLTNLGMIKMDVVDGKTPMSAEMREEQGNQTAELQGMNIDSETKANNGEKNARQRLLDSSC

Compound: CC[C@H]1OC(=O)[C@H](C)[C@@H](O[C@H]2C[C@@](C)(OC)[C@@H](O)[C@H](C)O2)[C@H](C)[C@@H](O[C@@H]2O[C@H](C)C[C@H](N(C)C)[C@H]2O)[C@](C)(O)C[C@@H](C)CN(C)[C@H](C)[C@@H](O)[C@]1(C)O [Azithromycin (dihydrate), azithromycin dihydrate]
- Cmax [1, 5]: 0.52 µM
- viability at 45 min, 590 µM [2]: 74%
- CC10 (concentration inducing 10% of cell death) [3]: 59 µM

Compound: CCN(CC)CCCC(C)Nc1ccnc2cc(Cl)ccc12 (stereo not drawn) [Chloroquine (diphosphate), chloroquine diphosphate]
- CC10 (concentration inducing 10% of cell death) [4]: 18 µM
- Cmax [1, 5]: 0.81 µM

Compound: C[C@@H]1C[C@H]2[C@@H]3CCC4=CC(=O)C=C[C@]4(C)[C@@]3(F)[C@@H](O)C[C@]2(C)[C@@]1(O)C(=O)CO [Dexamethasone, dexamethasone]
- CC10 (concentration inducing 10% of cell death) [4]: >200 µM
- Cmax [1, 5]: 0.63 µM

Compound: NC(=O)c1nc(F)c[nH]c1=O [Favipiravir, favipiravir]
- Effect on extracellular ATP release / Panx1 channel activity (in words) (human Panx1 channels): significant decrease in extracellular ATP release; also recorded: inhibit Panx1 channel activity
- Effect on Panx1 protein levels (Panx1 protein expression): without affecting mRNA or protein levels
- Effect on Panx1 mRNA levels (Panx1 mRNA expression): without affecting mRNA or protein levels
- Cmax ([1]; in vivo): 53.4 µM
- CC10 (concentration inducing 10% of cell death) [3]: >200 µM

Compound: CCN(CCO)CCCC(C)Nc1ccnc2cc(Cl)ccc12 (stereo not drawn) [Hydroxychloroquine (sulphate), hydroxychloroquine sulphate]
- Concentration with significant inhibition of Panx1 channel activity (extracellular ATP release) (human Panx1 channels): 23 µM
- Effect on extracellular ATP release / Panx1 channel activity (in words) (human Panx1 channels; listed as hydroxychloroquine): inhibit Panx1 channel activity
- Effect on extracellular ATP release / Panx1 channel activity (in words) (human Panx1 channels; listed as hydroxychloroquine sulphate): significant decrease in extracellular ATP release
- Effect on Panx1 protein levels (Panx1 protein expression): without affecting mRNA or protein levels
- Effect on Panx1 mRNA levels (Panx1 mRNA expression): without affecting mRNA or protein levels
- Cmax [1, 5]: 0.97 µM
- CC10 (concentration inducing 10% of cell death) [3]: 23 µM

Compound: Cc1cccc(C)c1OCC(=O)N[C@@H](Cc1ccccc1)[C@@H](O)C[C@H](Cc1ccccc1)NC(=O)[C@H](C(C)C)N1CCCNC1=O [Lopinavir, lopinavir]
- Concentration with significant inhibition of Panx1 channel activity (extracellular ATP release) (human Panx1 channels): 85 µM
- Effect on extracellular ATP release / Panx1 channel activity (in words) (human Panx1 channels): significant decrease in extracellular ATP release; also recorded: inhibit Panx1 channel activity
- Effect on Panx1 protein levels (Panx1 protein expression): without affecting mRNA or protein levels
- Effect on Panx1 mRNA levels (Panx1 mRNA expression): without affecting mRNA or protein levels
- CC10 (concentration inducing 10% of cell death) [3]: 17 µM

Compound: CCC(CC)COC(=O)[C@H](C)N[P@](=O)(OC[C@H]1O[C@@](C#N)(c2ccc3c(N)ncnn23)[C@H](O)[C@@H]1O)Oc1ccccc1 [Remdesivir]
- Effect on extracellular ATP release / Panx1 channel activity (in words) (human Panx1 channels): comparable concentration-dependent trend
- CC10 (concentration inducing 10% of cell death) [4]: >100 µM
- Cmax [1, 5]: 9.03 µM

Compound: CC(C)c1nc(CN(C)C(=O)N[C@H](C(=O)N[C@@H](Cc2ccccc2)C[C@H](O)[C@H](Cc2ccccc2)NC(=O)OCc2cncs2)C(C)C)cs1 [Ritonavir, ritonavir]
- Effect on extracellular ATP release / Panx1 channel activity (in words) (human Panx1 channels): did not decrease extracellular ATP release
- Cmax [1, 5]: 22.5 µM
- CC10 (concentration inducing 10% of cell death) [3]: 12 µM
